Measurements taken from patent publication US9469615B2, “Quinoxalines and AZA-quinoxalines as CRTH2 receptor modulators” (Merck Sharp & Dohme Corp., priority 2010, dated 2016).

Target: T1, hCRTH2 (Homo sapiens, UniProt Q9Y5Y4)
T1 construct: expressed in transfected cells; host or cells: HEK (human embryonic kidney) cells expressing hCRTH2; membrane preparation
T1 sequence (Q9Y5Y4 1-395): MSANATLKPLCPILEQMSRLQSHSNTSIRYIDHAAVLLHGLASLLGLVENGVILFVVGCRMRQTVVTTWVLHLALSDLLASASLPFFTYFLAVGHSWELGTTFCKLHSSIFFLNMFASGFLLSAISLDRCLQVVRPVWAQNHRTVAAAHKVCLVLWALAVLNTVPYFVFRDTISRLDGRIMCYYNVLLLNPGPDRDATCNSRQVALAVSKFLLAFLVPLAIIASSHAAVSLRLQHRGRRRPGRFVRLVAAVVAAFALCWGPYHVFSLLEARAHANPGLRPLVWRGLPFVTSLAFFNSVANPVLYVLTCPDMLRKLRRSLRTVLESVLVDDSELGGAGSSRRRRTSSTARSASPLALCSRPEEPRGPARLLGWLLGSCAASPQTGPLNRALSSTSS
Test: Radioligand binding assay ([3H]PGD2 competition, HEK-hCRTH2 membranes)
Conditions: [3H]PGD2 binding
In short: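 HEK-hCRTH2 membranes, 8-20 μg; [3H]PGD2 3.0 nM; 50 mM Tris-HCl pH 7.4/1 mM EDTA/2 mM MnCl2; DMSO 1%; 60 min RT; NSB 10 μM PGD2; filtration, scintillation counting.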

| Ki (rated A-E (Table A)) [nM] | Ki (values in text) [nM] | SMILES |
| --- | --- | --- |
| 0.1 to 2 | 1.2 | O=C(O)CCCCc1nc2cc(C(=O)N[C@@H]3CCCc4ccccc43)ccc2nc1-c1ccc(F)cc1 [compound 217, 3-(4-fluorophenyl)-7-[[(1,2,3,4-tetrahydro-1(R)-naphthalenyl)amino]carbonyl]-2-quinoxalinepentanoic acid] |
| 0.1 to 2 |  | O=C(O)CCCCc1nc2cc(C(=O)N[C@H]3CCCc4ccccc43)ccc2nc1-c1ccc(F)cc1 [compound 218, 3-(4-fluorophenyl)-7-[[(1,2,3,4-tetrahydro-1(S)-naphthalenyl)amino]carbonyl]-2-quinoxalinepentanoic acid] |
| 0.1 to 2 |  | O=C(O)CCCCc1nc2cc(C(=O)N[C@@H]3CCCc4cc(F)ccc43)ccc2nc1-c1ccc(F)cc1 [compound 219, 3-(4-fluorophenyl)-7-[[(6-fluoro-1,2,3,4-tetrahydro-1(R)-naphthalenyl)amino]carbonyl]-2-quinoxalinepentanoic acid] |
| 0.1 to 2 |  | O=C(O)CCCCc1nc2cc(C(=O)N[C@H]3CCCc4cc(F)ccc43)ccc2nc1-c1ccc(F)cc1 [compound 220, 3-(4-fluorophenyl)-7-[[(6-fluoro-1,2,3,4-tetrahydro-1(S)-naphthalenyl)amino]carbonyl]-2-quinoxalinepentanoic acid] |
| 0.1 to 2 |  | O=C(O)CCCCc1nc2cc(C(=O)N[C@@H]3CCCc4cc(Cl)ccc43)ccc2nc1-c1ccc(F)cc1 [compound 221, 7-[[(6-chloro-1,2,3,4-tetrahydro-1(R)-naphthalenyl)amino]carbonyl]-3-(4-fluorophenyl)-2-quinoxalinepentanoic acid] |
| 2.1 to 20 |  | O=C(O)CCCCc1nc2cc(C(=O)N[C@H]3CCCc4cc(Cl)ccc43)ccc2nc1-c1ccc(F)cc1 [compound 222, 7-[[(6-chloro-1,2,3,4-tetrahydro-1(S)-naphthalenyl)amino]carbonyl]-3-(4-fluorophenyl)-2-quinoxalinepentanoic acid] |
| 0.1 to 2 |  | O=C(O)CCCCc1nc2cc(C(=O)N[C@@H]3CCc4cc(F)ccc43)ccc2nc1-c1ccc(F)cc1 [compound 223, 7-[[(5-fluoro-2,3-dihydro-1H-inden-1(R)-yl)amino]carbonyl]-3-(4-fluorophenyl)-2-quinoxalinepentanoic acid] |
| 0.1 to 2 |  | O=C(O)CCCCc1nc2cc(C(=O)N[C@H]3CCc4cc(F)ccc43)ccc2nc1-c1ccc(F)cc1 [compound 224, 7-[[(5-fluoro-2,3-dihydro-1H-inden-1(5)-yl)amino]carbonyl]-3-(4-fluorophenyl)-2-quinoxalinepentanoic acid] |
| 0.1 to 2 |  | O=C(O)CCCCc1nc2cc(C(=O)N[C@@H]3CCc4cc(Cl)ccc43)ccc2nc1-c1ccc(F)cc1 [compound 225, 7-[[(5-chloro-2,3-dihydro-1H-inden-1(R)-yl)amino]carbonyl]-3-(4-fluorophenyl)-2-quinoxalinepentanoic acid] |
| 0.1 to 2 |  | O=C(O)CCCCc1nc2cc(C(=O)N[C@H]3CCc4cc(Cl)ccc43)ccc2nc1-c1ccc(F)cc1 [compound 226, 7-[[(5-chloro-2,3-dihydro-1H-inden-1(S)-yl)amino]carbonyl]-3-(4-fluorophenyl)-2-quinoxalinepentanic acid] |
| 0.1 to 2 |  | O=C(O)CCCCc1nc2cc(C(=O)N[C@@H](c3ccc(Cl)cc3)C(F)(F)F)ccc2nc1-c1ccc(F)cc1 [compound 227, 7-[[[1(S)-(4-chlorophenyl)-2,2,2-trifluoroethyl]amino]carbonyl]-3-(4-fluorophenyl)-2-quinoxalinepentanoic acid] |
| 0.1 to 2 |  | O=C(O)CCCCc1nc2cc(C(=O)N[C@H](c3ccc(Cl)cc3)C(F)(F)F)ccc2nc1-c1ccc(F)cc1 [compound 228, 7-[[[1(R)-(4-chlorophenyl)-2,2,2-trifluoroethyl]amino]carbonyl]-3-(4-fluorophenyl)-2-quinoxalinepentanoic acid] |
| 0.1 to 2 |  | O=C(O)CCCCc1nc2cc(C(=O)N[C@@H]3CCc4ccccc43)ccc2nc1-c1ccc(F)cc1 [compound 229, 7-[[(2,3-dihydro-1H-inden-1(R)-yl)amino]carbonyl]-3 - (4-fluorophenyl)-2-quinoxalinepentanoic acid] |
| 0.1 to 2 |  | O=C(O)CCCCc1nc2cc(C(=O)N[C@H]3CCc4ccccc43)ccc2nc1-c1ccc(F)cc1 [compound 230, 7-[[(2,3-dihydro-1H-inden-1(S)-yl)amino]carbonyl]-3-(4-fluorophenyl)-2-quinoxalinepentanoic acid] |
| 2.1 to 20 |  | C[C@@H](NC(=O)c1ccc2nc(-c3ccccc3)c(CC[C@@H]3C[C@H]3C(=O)O)nc2c1)c1ccc(Cl)cc1 [compound 232, trans-2-[2-[7-[[[1(R)-(4-chlorophenyl)ethyl]amino]carbonyl]-3-phenyl-2-quinoxalinyl]ethyl] cyclopropanecarboxylic acid] |
| 2.1 to 20 |  | C[C@@H](NC(=O)c1ccc2nc(-c3ccccc3)c(CC[C@H]3C[C@@H]3C(=O)O)nc2c1)c1ccc(Cl)cc1 [compound 233, trans-2-[2-[7-[[[1(R)-(4-chlorophenyl)ethyl]amino]carbonyl]-3-phenyl-2-quinexalinyl]ethyl]cyclopropanecarboxylic acid] |

| Ki (rated A-E (Table A)) [nM] | Ki (values in text) [nM] | SMILES |
| --- | --- | --- |
| 2.1 to 20 |  | C[C@@H](NC(=O)c1ccc2nc(-c3ccccc3)c(CCCCC(=O)O)nc2c1)c1ccc(F)cc1 [compound 234, 7-[[[1(R)-(4-fluorophenyl)ethyl]amino]carbonyl]-3-phenyl-2-quinoxalinepentanoic acid] |
| 2.1 to 20 |  | C[C@H](NC(=O)c1ccc2nc(-c3ccccc3)c(CCCCC(=O)O)nc2c1)c1ccc(F)cc1 [compound 235, 7-[[[1(S)-(4-fluorophenyl)ethyl]amino]carbonyl]-3-phenyl-2-quinoxalinepentanoic acid] |
| 2.1 to 20 |  | C[C@H](c1ccc(F)cc1)N(C)C(=O)c1ccc2nc(-c3ccccc3)c(CCCCC(=O)O)nc2c1 [compound 236, 7-[[[1(R)-(4-fluorophenyl)ethyl]methylamino]carbonyl]-3-phenyl-2-quinoxalinepentanoic acid] |
| 2.1 to 20 |  | C[C@@H](c1ccc(F)cc1)N(C)C(=O)c1ccc2nc(-c3ccccc3)c(CCCCC(=O)O)nc2c1 [compound 237, 7-[[[1(S)-(4-fluorophenyl)ethyl]methylamino]carbonyl]-3-phenyl-2-quinoxalinepentanoic acid] |
| 2.1 to 20 |  | C[C@H](c1ccc(Cl)cc1)N(C)C(=O)c1ccc2nc(-c3ccccc3)c(CCCCC(=O)O)nc2c1 [compound 238, 7-[[[1(R)-(4-chlorophenyl)ethyl]methylamino]carbonyl]-3-phenyl-2-quinoxalinepentanoic acid] |
| 2.1 to 20 |  | C[C@@H](c1ccc(Cl)cc1)N(C)C(=O)c1ccc2nc(-c3ccccc3)c(CCCCC(=O)O)nc2c1 [compound 239, 7-[[[1(S)-(4-chlorophenyl)ethyl]methylamino]carbonyl]-3-phenyl-2-quinoxalinepentanoic acid] |
| 2.1 to 20 |  | C[C@H](c1ccc(F)cc1)N(C)C(=O)c1ccc2nc(-c3ccc(F)cc3)c(CCCCC(=O)O)nc2c1 [compound 240, 3-(4-fluorophenyl)-7-[[[1(R)-(4-fluorophenyl)ethyl]methylamino]carbonyl]-2-quinoxalinepentanoic acid] |
| 2.1 to 20 |  | C[C@@H](c1ccc(F)cc1)N(C)C(=O)c1ccc2nc(-c3ccc(F)cc3)c(CCCCC(=O)O)nc2c1 [compound 241, 3-(4-fluorophenyl)-7-[[[1(S)-(4-fluorophenyl)ethyl]methylamino]carbonyl]-2-quinoxalinepentanoic acid] |
| 2.1 to 20 |  | C[C@H](c1ccc(Cl)cc1)N(C)C(=O)c1ccc2nc(-c3ccc(F)cc3)c(CCCCC(=O)O)nc2c1 [compound 242, 7-[[[1(R)-(4-chlorophenyl)ethyl]methylamino]carbonyl]-3-(4-fluorophenyl)-2-quinoxalinepentanoic acid] |
| 2.1 to 20 |  | C[C@@H](c1ccc(Cl)cc1)N(C)C(=O)c1ccc2nc(-c3ccc(F)cc3)c(CCCCC(=O)O)nc2c1 [compound 243, 7-[[[1(S)-(4-chlorophenyl)ethyl]methylamino]carbonyl]-3-(4-fluorophenyl)-2-quinoxalinepentanoic acid] |
| 2.1 to 20 |  | O=C(O)CCCCc1nc2cc(C(=O)N3CCC(c4ncccn4)CC3)ccc2nc1-c1ccc(F)cc1 [compound 244, 3-(4-fluorophenyl)-7-[[4-(2-pyrimidinyl)-1-piperidinyl]carbonyl]-2-quinoxalinepentanoic acid] |
| 2.1 to 20 |  | O=C(O)CCCCc1nc2cc(C(=O)N3CCC(c4ncccn4)CC3)ccc2nc1-c1ccccc1 [compound 245, 3-phenyl-7-[[4-(2-pyrimidinyl)-1-piperidinyl]carbonyl]-2-quinoxalinepentanoic acid] |
| 0.1 to 2 | 1.9 | N#Cc1ccc(C2CN(C(=O)c3ccc4nc(-c5ccc(F)cc5)c(CCCCC(=O)O)nc4c3)C2)cc1 [compound 246, 7-[[3-(4-cyanophenyl)-1-azetidinyl]carbonyl]-3-(4-fluorophenyl)-2-quinoxalinepentanoic acid] |
| 2.1 to 20 |  | O=C(O)CCCCc1nc2cc(C(=O)N3CC(c4nc5ccccc5[nH]4)C3)ccc2nc1-c1ccccc1 [compound 247, 7-[[3-(1H-benzimidazol-2-yl)-1-azetidinyl]carbonyl]-3-phenyl-2-quinoxalinepentanoic acid] |
| 2.1 to 20 |  | O=C(O)CCCCc1nc2cc(C(=O)N3CC(c4nc5ccccc5o4)C3)ccc2nc1-c1ccc(F)cc1 [compound 248, 7-[[3-(2-benzoxazolyl)-1-azetidinyl]carbonyl]-3-(4-fluorophenyl)-2-quinoxalinepentanoic acid] |
